Species on record: Rattus norvegicus
Experiment: Open TG-GATES - Regimen: Single
Type: toxicity, organism-based, Sprague-Dawley
Set-up: regimen Single, gender Male, age 6 weeks
Details: in vivo, po, 1000 mg/kg, route gavage, dose level High; for APTT / Bas / Eos / Fbg / Hb / Ht / Lym / MCH / MCHC / MCV / Mono / Neu / PT / Plat / RBC / Ret / WBC: tissue Blood; for KIDNEY_L / KIDNEY_R / KIDNEY_TOTAL: tissue Kidney; for LIVER: tissue Liver; for A/G / ALP / ALT / AST / BUN / CRE / Ca / Cl / DBIL / GLC / IP / K / LDH / Na / PL / RALB / TBIL / TC / TG / TP / gamma-GTP: tissue Plasma

Structure (SMILES): CC(=O)Nc1ccc2c(c1)Cc1ccccc1-2 [2-ACETYLAMINOFLUORENE]
- TERMINAL_BW (3 h): 222.5 g
- APTT (3 h): 20.1 s
- Bas (3 h): 0.6%
- Eos (3 h): 1%
- Fbg (3 h): 233.2 mg/dL
- Hb (3 h): 14.2 g/dL
- Ht (3 h): 41%
- Lym (3 h): 73%
- MCH (3 h): 21.9 pg
- MCHC (3 h): 34.7%
- MCV (3 h): 63.3 fL
- Mono (3 h): 3%
- Neu (3 h): 21.6%
- PT (3 h): 12 s
- Plat (3 h): 122.7 x10_4/uL
- RBC (3 h): 648.8 x10_4/ul
- Ret (3 h): 7.5%
- WBC (3 h): 60.1 x10_2/uL
- KIDNEY_L (3 h): 1 g
- KIDNEY_R (3 h): 1 g
- KIDNEY_TOTAL (3 h): 2 g
- LIVER (3 h): 10.4 g
- A/G (3 h): 1.6
- ALP (3 h): 850.2 IU/L
- ALT (3 h): 41.4 IU/L
- AST (3 h): 84 IU/L
- BUN (3 h): 12.4 mg/dL
- CRE (3 h): 0.5 mg/dL
- Ca (3 h): 10.9 mg/dL
- Cl (3 h): 102.4 meq/L
- DBIL (3 h): 0.078 mg/dL
- GLC (3 h): 218.8 mg/dL
- IP (3 h): 10.5 mg/dL
- K (3 h): 3.8 meq/L
- LDH (3 h): 209.6 IU/L
- Na (3 h): 140.8 meq/L
- PL (3 h): 151.6 mg/dL
- RALB (3 h): 3.6 g/dL
- TBIL (3 h): 0.1 mg/dL
- TC (3 h): 87.4 mg/dL
- TG (3 h): 68.8 mg/dL
- TP (3 h): 5.9 g/dL
- gamma-GTP (3 h): 1.2 IU/L
- TERMINAL_BW (6 h): 215.7 g
- APTT (6 h): 19.6 s
- Bas (6 h): 0.8%
- Eos (6 h): 1.2%
- Fbg (6 h): 227.2 mg/dL
- Hb (6 h): 14.4 g/dL
- Ht (6 h): 41.6%
- Lym (6 h): 73.6%
- MCH (6 h): 21.9 pg
- MCHC (6 h): 34.6%
- MCV (6 h): 63.4 fL
- Mono (6 h): 1.8%
- Neu (6 h): 22.8%
- PT (6 h): 12.9 s
- Plat (6 h): 126.1 x10_4/uL
- RBC (6 h): 656.8 x10_4/ul
- Ret (6 h): 7.5%
- WBC (6 h): 35.4 x10_2/uL
- KIDNEY_L (6 h): 0.9 g
- KIDNEY_R (6 h): 0.9 g
- KIDNEY_TOTAL (6 h): 1.8 g
- LIVER (6 h): 9.7 g
- A/G (6 h): 1.7
- ALP (6 h): 1010.2 IU/L
- ALT (6 h): 37.4 IU/L
- AST (6 h): 72.6 IU/L
- BUN (6 h): 14.4 mg/dL
- CRE (6 h): 0.5 mg/dL
- Ca (6 h): 10.7 mg/dL
- Cl (6 h): 102 meq/L
- DBIL (6 h): 0.074 mg/dL
- GLC (6 h): 251.2 mg/dL
- IP (6 h): 9.7 mg/dL
- K (6 h): 4 meq/L
- LDH (6 h): 228.6 IU/L
- Na (6 h): 140.6 meq/L
- PL (6 h): 133.6 mg/dL
- RALB (6 h): 3.6 g/dL
- TBIL (6 h): 0.1 mg/dL
- TC (6 h): 83.8 mg/dL
- TG (6 h): 26.6 mg/dL
- TP (6 h): 5.8 g/dL
- gamma-GTP (6 h): 1.4 IU/L
- TERMINAL_BW (9 h): 214.2 g
- APTT (9 h): 18.7 s
- Bas (9 h): 0.6%
- Eos (9 h): 0.6%
- Fbg (9 h): 252.4 mg/dL
- Hb (9 h): 14.8 g/dL
- Ht (9 h): 42.6%
- Lym (9 h): 68.8%
- MCH (9 h): 22 pg
- MCHC (9 h): 34.7%
- MCV (9 h): 63.3 fL
- Mono (9 h): 3.6%
- Neu (9 h): 25%
- PT (9 h): 13.1 s
- Plat (9 h): 130.1 x10_4/uL
- RBC (9 h): 673.2 x10_4/ul
- Ret (9 h): 7.4%
- WBC (9 h): 46.2 x10_2/uL
- KIDNEY_L (9 h): 1 g
- KIDNEY_R (9 h): 0.9 g
- KIDNEY_TOTAL (9 h): 1.9 g
- LIVER (9 h): 10.4 g
- A/G (9 h): 1.5
- ALP (9 h): 751.4 IU/L
- ALT (9 h): 33 IU/L
- AST (9 h): 64.8 IU/L
- BUN (9 h): 13.4 mg/dL
- CRE (9 h): 0.5 mg/dL
- Ca (9 h): 11.1 mg/dL
- Cl (9 h): 104.6 meq/L
- DBIL (9 h): 0.066 mg/dL
- GLC (9 h): 225.4 mg/dL
- IP (9 h): 9.7 mg/dL
- K (9 h): 4.2 meq/L
- LDH (9 h): 196.8 IU/L
- Na (9 h): 141.4 meq/L
- PL (9 h): 160.4 mg/dL
- RALB (9 h): 3.6 g/dL
- TBIL (9 h): 0.1 mg/dL
- TC (9 h): 90 mg/dL
- TG (9 h): 34.4 mg/dL
- TP (9 h): 6 g/dL
- gamma-GTP (9 h): 1 IU/L
- TERMINAL_BW (24 h): 212.5 g
- APTT (24 h): 20.3 s
- Bas (24 h): 0.4%
- Eos (24 h): 0.8%
- Fbg (24 h): 209.6 mg/dL
- Hb (24 h): 14.7 g/dL
- Ht (24 h): 42.1%
- Lym (24 h): 67.2%
- MCH (24 h): 21.8 pg
- MCHC (24 h): 35%
- MCV (24 h): 62.3 fL
- Mono (24 h): 2.8%
- Neu (24 h): 28%
- PT (24 h): 15 s
- Plat (24 h): 140.3 x10_4/uL
- RBC (24 h): 675.8 x10_4/ul
- Ret (24 h): 7%
- WBC (24 h): 79.6 x10_2/uL
- KIDNEY_L (24 h): 1 g
- KIDNEY_R (24 h): 1 g
- KIDNEY_TOTAL (24 h): 1.9 g
- LIVER (24 h): 9.7 g
- A/G (24 h): 1.6
- ALP (24 h): 787.8 IU/L
- ALT (24 h): 32.4 IU/L
- AST (24 h): 78.8 IU/L
- BUN (24 h): 11.6 mg/dL
- CRE (24 h): 0.6 mg/dL
- Ca (24 h): 10 mg/dL
- Cl (24 h): 105 meq/L
- DBIL (24 h): 0.1 mg/dL
- GLC (24 h): 190.6 mg/dL
- IP (24 h): 8.7 mg/dL
- K (24 h): 4.2 meq/L
- LDH (24 h): 252.4 IU/L
- Na (24 h): 140.8 meq/L
- PL (24 h): 116.8 mg/dL
- RALB (24 h): 3.3 g/dL
- TBIL (24 h): 0.2 mg/dL
- TC (24 h): 59.6 mg/dL
- TG (24 h): 67.4 mg/dL
- TP (24 h): 5.3 g/dL
- gamma-GTP (24 h): 1.2 IU/L

— ChEMBL document CHEMBL3885861, “Open TG-GATES”
